For data set [1], the target named is T1, Bromodomain-containing protein 2 (Homo sapiens, UniProt P25440). Put plainly: Binding affinity to full length BRD2 BD2 in human HuT78 cell lysates incubated for 45 mins by liquid chromatography-mass spectrometry based chemoproteomic binding assay. It counts as subcellular.
The target of data set [2] is T2, ATPase family AAA domain-containing protein 2B (Homo sapiens, UniProt Q9ULI0).
T2 sequence (Q9ULI0 whole entry): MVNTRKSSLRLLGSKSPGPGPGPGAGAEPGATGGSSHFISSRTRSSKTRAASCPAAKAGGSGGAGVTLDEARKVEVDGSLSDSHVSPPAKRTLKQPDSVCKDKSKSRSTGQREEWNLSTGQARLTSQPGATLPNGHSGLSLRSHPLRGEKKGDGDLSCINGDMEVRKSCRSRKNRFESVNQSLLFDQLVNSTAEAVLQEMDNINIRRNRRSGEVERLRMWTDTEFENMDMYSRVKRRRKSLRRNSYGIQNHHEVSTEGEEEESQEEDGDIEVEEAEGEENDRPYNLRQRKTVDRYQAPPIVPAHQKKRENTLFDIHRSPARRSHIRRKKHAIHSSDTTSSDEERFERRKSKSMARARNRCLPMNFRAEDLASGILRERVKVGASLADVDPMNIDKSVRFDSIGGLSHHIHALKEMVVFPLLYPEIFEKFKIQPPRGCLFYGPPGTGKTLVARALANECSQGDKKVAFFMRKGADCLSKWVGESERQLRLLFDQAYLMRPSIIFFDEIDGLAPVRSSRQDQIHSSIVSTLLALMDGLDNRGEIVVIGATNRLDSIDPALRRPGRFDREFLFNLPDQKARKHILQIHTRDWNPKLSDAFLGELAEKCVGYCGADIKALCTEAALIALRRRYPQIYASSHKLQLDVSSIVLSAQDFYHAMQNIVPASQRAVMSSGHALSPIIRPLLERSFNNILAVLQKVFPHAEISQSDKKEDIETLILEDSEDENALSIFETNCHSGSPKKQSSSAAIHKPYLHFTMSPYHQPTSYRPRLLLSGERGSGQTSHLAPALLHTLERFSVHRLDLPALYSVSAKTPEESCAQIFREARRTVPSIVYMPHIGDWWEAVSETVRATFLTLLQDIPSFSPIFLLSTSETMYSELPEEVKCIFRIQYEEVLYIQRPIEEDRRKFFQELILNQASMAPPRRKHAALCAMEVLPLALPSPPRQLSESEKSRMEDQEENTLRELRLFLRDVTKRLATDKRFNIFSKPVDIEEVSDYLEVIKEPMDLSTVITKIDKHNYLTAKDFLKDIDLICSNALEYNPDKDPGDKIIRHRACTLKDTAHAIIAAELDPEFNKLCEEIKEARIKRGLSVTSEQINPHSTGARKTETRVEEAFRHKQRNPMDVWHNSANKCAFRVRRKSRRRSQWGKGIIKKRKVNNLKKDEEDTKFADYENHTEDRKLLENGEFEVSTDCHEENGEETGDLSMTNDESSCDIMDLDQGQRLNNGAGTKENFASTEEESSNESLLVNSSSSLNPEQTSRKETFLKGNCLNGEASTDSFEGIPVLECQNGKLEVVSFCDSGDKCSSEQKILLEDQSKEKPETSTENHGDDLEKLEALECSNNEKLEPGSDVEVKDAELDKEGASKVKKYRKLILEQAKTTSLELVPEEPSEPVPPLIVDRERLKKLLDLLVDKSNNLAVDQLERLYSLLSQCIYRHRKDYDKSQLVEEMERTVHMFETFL
Put plainly: Binding affinity to human partial length ATAD2B (Q955 to R1082 residues) expressed in bacterial expression system by BROMOscan assay.

The next data set relates to Blood. In words: Inhibition of LPS-induced IL6 production in human whole blood preincubated for 30 mins followed by LPS addition and measured after overnight incubation by mesoscale assay. It counts as functional, tissue-based.
Data set [3] is described as follows: Lipophilicity, logD of the compound at pH 7.4 by chromatographic method. It counts as physicochemical. To be noted: buffer.
In data set [4] the target is T1, Bromodomain-containing protein 2. In words: Binding affinity to human partial length BRD2 bromodomain 2 isoform 1 (E348 to D455 residues) expressed in bacterial expression system by BROMOscan assay.
The target in data set [5] is Bromodomain-containing protein 3 (Homo sapiens, UniProt Q15059). Put plainly: Binding affinity to full length BRD3 BD1 in human HuT78 cell lysates incubated for 45 mins by liquid chromatography-mass spectrometry based chemoproteomic binding assay. It counts as subcellular.
Bromodomain-containing protein 3, sequence (Q15059 whole entry): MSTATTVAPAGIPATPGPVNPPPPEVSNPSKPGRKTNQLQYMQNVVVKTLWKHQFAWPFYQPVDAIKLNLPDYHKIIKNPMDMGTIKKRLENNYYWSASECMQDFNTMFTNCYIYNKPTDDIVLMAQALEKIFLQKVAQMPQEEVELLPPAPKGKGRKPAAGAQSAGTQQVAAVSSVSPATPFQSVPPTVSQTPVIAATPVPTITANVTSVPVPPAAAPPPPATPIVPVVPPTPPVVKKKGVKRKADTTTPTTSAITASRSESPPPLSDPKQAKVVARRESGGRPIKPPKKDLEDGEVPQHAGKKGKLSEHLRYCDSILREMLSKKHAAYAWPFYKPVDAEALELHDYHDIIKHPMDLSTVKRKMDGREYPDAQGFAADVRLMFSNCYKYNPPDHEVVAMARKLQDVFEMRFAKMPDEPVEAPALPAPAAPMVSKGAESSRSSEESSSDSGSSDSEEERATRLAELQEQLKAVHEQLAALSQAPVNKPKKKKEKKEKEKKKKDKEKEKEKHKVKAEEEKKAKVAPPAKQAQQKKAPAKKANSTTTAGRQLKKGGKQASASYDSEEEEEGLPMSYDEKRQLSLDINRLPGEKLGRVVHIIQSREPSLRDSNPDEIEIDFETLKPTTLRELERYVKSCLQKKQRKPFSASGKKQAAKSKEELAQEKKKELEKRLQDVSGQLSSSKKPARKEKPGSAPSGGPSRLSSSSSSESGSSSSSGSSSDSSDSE
In data set [6] the target is T3, Bromodomain testis-specific protein (Homo sapiens, UniProt Q58F21). Put plainly: Binding affinity to full length BRDT BD1 in human HuT78 cell lysates incubated for 45 mins by liquid chromatography-mass spectrometry based chemoproteomic binding assay. The class given is subcellular.
The target in data set [7] is T3, Bromodomain testis-specific protein. In words: Binding affinity to full length BRDT BD2 in human HuT78 cell lysates incubated for 45 mins by liquid chromatography-mass spectrometry based chemoproteomic binding assay. It counts as subcellular.
Data set [8] deals with Transcription initiation factor TFIID subunit 1-like (Homo sapiens, UniProt Q8IZX4). Put plainly: Binding affinity to human partial length TAF1L bromodomain 2 (Q1523 to D1654 residues) expressed in bacterial expression system by BROMOscan assay.
Another data set addresses Protein polybromo-1 (Homo sapiens, UniProt Q86U86). Put plainly: Binding affinity to human partial length PBRM1 bromodomain 5 (S645 to D766 residues) expressed in bacterial expression system by BROMOscan assay.
The target in data set [9] is Transcription initiation factor TFIID subunit 1 (Homo sapiens, UniProt P21675). In words: Binding affinity to full length TAF1 in human HuT78 cell lysates incubated for 45 mins by liquid chromatography-mass spectrometry based chemoproteomic binding assay. The class given is subcellular.
Transcription initiation factor TFIID subunit 1, sequence (P21675 whole entry): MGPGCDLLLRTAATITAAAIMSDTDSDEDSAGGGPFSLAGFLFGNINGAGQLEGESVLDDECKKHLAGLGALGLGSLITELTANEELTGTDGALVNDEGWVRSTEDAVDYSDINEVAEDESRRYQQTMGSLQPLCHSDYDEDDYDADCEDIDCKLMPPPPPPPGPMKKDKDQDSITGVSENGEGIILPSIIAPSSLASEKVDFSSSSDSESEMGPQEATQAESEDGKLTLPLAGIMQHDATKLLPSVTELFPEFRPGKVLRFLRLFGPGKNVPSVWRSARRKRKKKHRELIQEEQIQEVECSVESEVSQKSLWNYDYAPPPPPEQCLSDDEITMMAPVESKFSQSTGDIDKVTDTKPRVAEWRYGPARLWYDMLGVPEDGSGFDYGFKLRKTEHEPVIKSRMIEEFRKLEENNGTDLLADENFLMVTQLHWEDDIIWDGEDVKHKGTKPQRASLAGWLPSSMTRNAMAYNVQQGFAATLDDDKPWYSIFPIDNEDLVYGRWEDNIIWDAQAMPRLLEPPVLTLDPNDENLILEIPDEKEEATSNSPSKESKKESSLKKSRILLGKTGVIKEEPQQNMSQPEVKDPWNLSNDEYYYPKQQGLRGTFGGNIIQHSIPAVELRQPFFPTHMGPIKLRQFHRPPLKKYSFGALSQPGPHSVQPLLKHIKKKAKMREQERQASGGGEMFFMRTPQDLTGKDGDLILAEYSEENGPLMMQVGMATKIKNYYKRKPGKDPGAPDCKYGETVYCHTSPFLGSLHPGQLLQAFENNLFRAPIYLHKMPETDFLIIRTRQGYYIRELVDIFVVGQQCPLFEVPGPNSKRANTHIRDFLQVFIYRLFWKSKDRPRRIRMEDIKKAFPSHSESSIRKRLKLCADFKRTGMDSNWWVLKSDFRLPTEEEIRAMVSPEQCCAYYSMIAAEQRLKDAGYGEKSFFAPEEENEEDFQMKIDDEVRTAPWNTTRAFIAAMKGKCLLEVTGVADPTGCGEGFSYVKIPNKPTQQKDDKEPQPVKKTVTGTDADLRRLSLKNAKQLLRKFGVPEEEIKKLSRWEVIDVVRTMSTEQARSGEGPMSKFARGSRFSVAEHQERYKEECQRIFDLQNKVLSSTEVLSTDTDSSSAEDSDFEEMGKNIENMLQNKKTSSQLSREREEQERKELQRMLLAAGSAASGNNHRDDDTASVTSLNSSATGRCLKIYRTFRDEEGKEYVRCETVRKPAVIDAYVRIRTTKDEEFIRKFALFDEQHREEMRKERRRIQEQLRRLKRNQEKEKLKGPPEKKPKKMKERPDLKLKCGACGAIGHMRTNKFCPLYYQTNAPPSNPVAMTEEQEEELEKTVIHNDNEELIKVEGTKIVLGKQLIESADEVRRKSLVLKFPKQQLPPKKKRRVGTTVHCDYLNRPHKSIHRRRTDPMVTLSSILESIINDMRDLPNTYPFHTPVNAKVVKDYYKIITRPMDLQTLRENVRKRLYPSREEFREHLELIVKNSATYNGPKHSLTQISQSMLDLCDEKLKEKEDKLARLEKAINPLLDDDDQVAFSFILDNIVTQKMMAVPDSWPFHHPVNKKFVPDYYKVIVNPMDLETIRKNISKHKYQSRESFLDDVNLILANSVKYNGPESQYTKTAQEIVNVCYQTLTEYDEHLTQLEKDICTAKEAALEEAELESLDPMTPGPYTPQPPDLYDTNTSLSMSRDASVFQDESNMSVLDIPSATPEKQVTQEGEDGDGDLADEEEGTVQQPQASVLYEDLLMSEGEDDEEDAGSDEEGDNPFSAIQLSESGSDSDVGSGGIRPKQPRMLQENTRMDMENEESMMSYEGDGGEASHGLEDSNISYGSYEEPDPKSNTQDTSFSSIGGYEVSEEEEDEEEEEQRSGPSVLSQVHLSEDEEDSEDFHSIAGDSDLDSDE
Data set [10] in a line: Intrinsic clearance in mouse hepatocytes at 0.5 uM by LC-MS/MS analysis. The class given is ADME, cell-based, Hepatocyte.
For data set [11], the system named is B cell. In words: Downregulation of IL-17A secretion in human B cells cocultured with human PBMC at 0.37 to 10 uM preincubated for 1 hr followed by anti-IgM and TCR stimulation and measured after 84 hrs by ELISA. It counts as functional, cell-based. To be noted: dose microM 0.37-10, time 1.0 hrs. On the technique in general: In an ELISA, binding on a coated surface is turned into a signal by an enzyme label.

Data set [12] concerns B cell. Put plainly: Downregulation of Ig-G secretion in human B cells cocultured with human PBMC at 0.37 to 10 uM preincubated for 1 hr followed by anti-IgM and TCR stimulation and measured after 84 hrs by ELISA. The class given is functional, cell-based. To be noted: dose microM 0.37-10, time 1.0 hrs.

Molecules are shown by their SMILES. Activity calls are given as the source filed them. No cut-off for these calls is given here. A value given as a limit tells only on which side of the number the result lay.

T1 sequence (P25440 whole entry, the tested form may be a part): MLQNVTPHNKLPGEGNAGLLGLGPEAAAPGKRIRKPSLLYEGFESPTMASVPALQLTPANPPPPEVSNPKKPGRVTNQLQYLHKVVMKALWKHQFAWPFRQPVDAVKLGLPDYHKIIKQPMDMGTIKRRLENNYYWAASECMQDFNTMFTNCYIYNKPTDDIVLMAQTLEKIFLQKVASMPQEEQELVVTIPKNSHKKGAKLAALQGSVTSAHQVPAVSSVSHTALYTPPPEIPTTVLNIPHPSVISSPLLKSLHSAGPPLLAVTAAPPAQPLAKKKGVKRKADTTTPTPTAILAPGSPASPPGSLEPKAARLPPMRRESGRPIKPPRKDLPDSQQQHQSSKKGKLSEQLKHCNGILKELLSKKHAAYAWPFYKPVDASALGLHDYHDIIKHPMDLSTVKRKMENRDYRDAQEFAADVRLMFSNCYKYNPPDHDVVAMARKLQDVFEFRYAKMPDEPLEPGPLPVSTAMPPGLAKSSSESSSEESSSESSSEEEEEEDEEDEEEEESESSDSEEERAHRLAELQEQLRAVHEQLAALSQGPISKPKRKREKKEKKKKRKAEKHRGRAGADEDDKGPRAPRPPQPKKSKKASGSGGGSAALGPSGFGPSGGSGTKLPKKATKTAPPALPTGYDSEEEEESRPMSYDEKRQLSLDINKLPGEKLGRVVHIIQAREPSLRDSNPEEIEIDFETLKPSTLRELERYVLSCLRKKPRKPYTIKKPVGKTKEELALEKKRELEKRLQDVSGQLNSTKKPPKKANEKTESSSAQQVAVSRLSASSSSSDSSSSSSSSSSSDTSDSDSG
Protein polybromo-1, sequence (Q86U86 whole entry, the tested form may be a part): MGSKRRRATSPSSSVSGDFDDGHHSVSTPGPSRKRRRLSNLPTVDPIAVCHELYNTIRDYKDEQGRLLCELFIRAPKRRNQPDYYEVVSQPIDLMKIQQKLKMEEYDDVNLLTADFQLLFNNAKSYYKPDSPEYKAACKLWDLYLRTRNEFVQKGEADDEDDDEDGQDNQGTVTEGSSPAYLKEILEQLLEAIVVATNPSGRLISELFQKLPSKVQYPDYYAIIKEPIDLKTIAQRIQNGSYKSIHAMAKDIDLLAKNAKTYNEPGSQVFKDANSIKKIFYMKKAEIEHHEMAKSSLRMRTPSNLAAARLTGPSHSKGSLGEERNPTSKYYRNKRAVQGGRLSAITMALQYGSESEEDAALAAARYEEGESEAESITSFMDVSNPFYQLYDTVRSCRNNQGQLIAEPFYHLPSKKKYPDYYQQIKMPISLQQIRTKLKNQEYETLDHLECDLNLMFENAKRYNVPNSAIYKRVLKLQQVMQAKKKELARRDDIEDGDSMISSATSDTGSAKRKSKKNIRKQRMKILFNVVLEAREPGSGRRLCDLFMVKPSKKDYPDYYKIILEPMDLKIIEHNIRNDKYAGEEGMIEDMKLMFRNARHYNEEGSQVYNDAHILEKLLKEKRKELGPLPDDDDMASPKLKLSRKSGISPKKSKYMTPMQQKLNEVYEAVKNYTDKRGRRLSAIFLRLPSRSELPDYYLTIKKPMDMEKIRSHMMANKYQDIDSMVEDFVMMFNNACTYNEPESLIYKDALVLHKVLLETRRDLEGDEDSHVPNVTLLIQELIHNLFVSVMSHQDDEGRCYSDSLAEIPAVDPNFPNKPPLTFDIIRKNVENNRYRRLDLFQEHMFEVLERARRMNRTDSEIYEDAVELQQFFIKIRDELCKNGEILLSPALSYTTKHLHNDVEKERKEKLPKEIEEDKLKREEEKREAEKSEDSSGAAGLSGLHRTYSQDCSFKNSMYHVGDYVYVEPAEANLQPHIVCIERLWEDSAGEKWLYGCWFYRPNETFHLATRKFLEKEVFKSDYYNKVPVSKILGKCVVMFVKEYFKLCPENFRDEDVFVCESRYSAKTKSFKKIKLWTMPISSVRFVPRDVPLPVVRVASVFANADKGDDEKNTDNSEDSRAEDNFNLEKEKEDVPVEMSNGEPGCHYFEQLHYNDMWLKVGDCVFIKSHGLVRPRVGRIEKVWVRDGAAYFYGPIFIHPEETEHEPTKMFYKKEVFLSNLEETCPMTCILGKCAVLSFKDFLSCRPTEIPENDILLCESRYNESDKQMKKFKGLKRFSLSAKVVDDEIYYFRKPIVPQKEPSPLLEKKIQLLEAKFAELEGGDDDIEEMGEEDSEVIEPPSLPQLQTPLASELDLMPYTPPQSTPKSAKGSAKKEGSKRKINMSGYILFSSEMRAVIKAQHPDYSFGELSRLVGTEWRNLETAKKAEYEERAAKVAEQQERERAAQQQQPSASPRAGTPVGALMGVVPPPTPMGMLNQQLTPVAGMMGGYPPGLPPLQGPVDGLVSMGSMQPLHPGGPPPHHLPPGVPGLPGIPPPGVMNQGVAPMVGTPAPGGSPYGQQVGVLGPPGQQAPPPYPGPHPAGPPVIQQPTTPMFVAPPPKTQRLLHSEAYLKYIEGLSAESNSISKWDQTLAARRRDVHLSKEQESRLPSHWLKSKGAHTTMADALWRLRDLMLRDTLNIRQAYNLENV

Take `Cc1cc2c(-c3ccco3)cnc(N[C@@H]3CCN(C)C[C@H]3C(=O)NC3CCCCC3)c2[nH]c1=O` [GSK789]: the Kd (in general, a measure of binding affinity in units of concentration) is more than 25.1 µM in data set [1]; 15.8 µM in data set [2]; 25.1 µM in [4]; 0.00398 µM in [5]; 0.01 µM in data set [6]; more than 31.6 µM in data set [7]. Further, the Kd is 0.398 µM in [8] and 10 µM on Protein polybromo-1. For the same compound, the 50% inhibitory concentration (IC50) (commonly the midpoint of a concentration-inhibition curve) in the data set on Blood was 3.55 µM; in data set [9], more than 10 µM. Moreover, the chromatographic logD – broadly, a lipophilicity value derived from retention on a column – in data set [3] is 3.99. This compound returned a CLH in data set [10] of 8.15 mL/min/g. The result with B cell [11] and in the data set with B cell [12] was Active.
